Test results published in US10105357B2, “Indication of antibiotic drugs for preparation of cancer inhibition pharmaceutical composition” (LAUNX BIOMEDICAL CO., LTD., priority 2014, dated 2018).
Counter-ions that a name gives are not always drawn.

Experiments:
[1] = system: Hep3B (hepatocellular carcinoma); experiment: Cell viability analysis, hepatic cancer Hep3B; assay type: cell-based, human
[2] = system: MDA-MB-231 (Mammary Gland, Adenocarcinoma); experiment: Cell viability analysis, breast cancer MDA-MB-231; assay type: cell-based, human
[3] = system: MCF7 (Mammary Gland, Adenocarcinoma); experiment: Cell viability analysis, breast cancer MCF7; assay type: cell-based, human
[4] = system: HI650 (Lung Adenocarcinoma); experiment: Cell viability analysis, lung cancer HI650; assay type: cell-based, human
cancer cell lines = experiment: Cell viability analysis (WST-1) on cancer cell lines; assay type: cell-based, human; conditions: drug 10 μM, 72 hours, WST-1; Table 3
[5] = system: SAS (Tongue squamous cell carcinoma); experiment: Cell viability analysis, tongue cancer SAS; assay type: cell-based, human
[6] = system: C-33A (Cervical carcinoma); experiment: Cell viability analysis, cervical cancer C-33A; assay type: cell-based, human
[7] = system: HepG2 (Hepatocellular Carcinoma); experiment: Cell viability analysis, hepatic cancer HepG2; assay type: cell-based, human
[8] = system: PC3 (p53−) (Prostate Adenocarcinoma); experiment: Cell viability analysis, prostate cancer PC3; assay type: cell-based, human
U-2OS = experiment: Cell viability analysis, osteosarcoma U-2OS; assay type: cell-based, human
[9] = system: A375 (Amelanotic Melanoma); experiment: Cell viability analysis, skin cancer A375; assay type: cell-based, human
[10] = system: LoVo (Colorectal Adenocarcinoma); experiment: Cell viability analysis, colon cancer LoVo; assay type: cell-based, human
BxPC-3 = experiment: Cell viability analysis, pancreatic cancer BxPC-3; assay type: cell-based, human
[11] = system: MKN-45 (Gastric Adenocarcinoma); experiment: Cell viability analysis, gastric cancer MKN-45; assay type: cell-based, human
[12] = system: BCC (basal cell carcinoma); experiment: Cell viability analysis, skin cancer BCC; assay type: cell-based, human
[13] = system: TSGH-8301 (Urinary Bladder Carcinoma); experiment: Cell viability analysis, bladder cancer TSGH-8301; assay type: cell-based, human
NIH: OVCAR-3 = experiment: Cell viability analysis, ovarian cancer NIH: OVCAR-3; assay type: cell-based, human
AsPC-1 = experiment: Cell viability analysis, pancreatic cancer AsPC-1; assay type: cell-based, human
TOV-21G = experiment: Cell viability analysis, ovarian cancer TOV-21G; assay type: cell-based, human
[14] = system: HCT116 (p53+) (Colorectal Carcinoma)
[15] = system: 786-O (Renal adenocarcinoma); experiment: Cell viability analysis, renal cancer 786-O; assay type: cell-based, human
[16] = system: HeLa (Cervix Adenocarcinoma); experiment: Cell viability analysis, cervical cancer HeLa; assay type: cell-based, human
[17] = system: A549 (Lung Adenocarcinoma); experiment: Cell viability analysis, lung cancer A549; assay type: cell-based, human
[18] = system: AGS (Gastric Adenocarcinoma); experiment: Cell viability analysis, gastric cancer AGS; assay type: cell-based, human
T24 = experiment: Cell viability analysis, bladder cancer T24; assay type: cell-based, human

## Cc1cc(C2CCCCC2)n(O)c(=O)c1.NCCO [Ciclopirox ethanolamine]
[1]
  The results of antibiotic drug inhibiting cancer cell lines (cell viability analysis), Hep3B: 48.66
[2]
  The results of antibiotic drug inhibiting cancer cell lines (cell viability analysis), MDA-MB231: 48.29
[3]
  The results of antibiotic drug inhibiting cancer cell lines (cell viability analysis), MCF-7: 53.67
[4]
  The results of antibiotic drug inhibiting cancer cell lines (cell viability analysis), H1650: 53.76
Cancer cell lines
  inhibition effect on different cancer cell lines: significant inhibition effect
[5]
  The results of antibiotic drug inhibiting cancer cell lines (cell viability analysis), SAS: 31.98
[6]
  The results of antibiotic drug inhibiting cancer cell lines (cell viability analysis), C-33A: 42.12
[7]
  The results of antibiotic drug inhibiting cancer cell lines (cell viability analysis), HepG2: 102.4
[8]
  The results of antibiotic drug inhibiting cancer cell lines (cell viability analysis), PC-3: 54.81
U-2OS
  The results of antibiotic drug inhibiting cancer cell lines (cell viability analysis), U2OS: 51.75
[9]
  The results of antibiotic drug inhibiting cancer cell lines (cell viability analysis), A375: 21.76
[10]
  The results of antibiotic drug inhibiting cancer cell lines (cell viability analysis), LoVo: 65.53
BxPC-3
  The results of antibiotic drug inhibiting cancer cell lines (cell viability analysis), BxPC-3: 47.7
[11]
  The results of antibiotic drug inhibiting cancer cell lines (cell viability analysis), MKN-45: 72.97
[12]
  The results of antibiotic drug inhibiting cancer cell lines (cell viability analysis), BCC: 29.08
[13]
  The results of antibiotic drug inhibiting cancer cell lines (cell viability analysis), TSGH-8301: 43.63
NIH: OVCAR-3
  The results of antibiotic drug inhibiting cancer cell lines (cell viability analysis), NIH-OVCAR-3: 66.99
AsPC-1
  The results of antibiotic drug inhibiting cancer cell lines (cell viability analysis), AsPC-1: 46.57
TOV-21G
  The results of antibiotic drug inhibiting cancer cell lines (cell viability analysis), TOV-21G: 28.95
[14]
  viability: 29.5%
[15]
  The results of antibiotic drug inhibiting cancer cell lines (cell viability analysis), 786-O: 18.27
[16]
  The results of antibiotic drug inhibiting cancer cell lines (cell viability analysis), HeLa: 41.02
[17]
  The results of antibiotic drug inhibiting cancer cell lines (cell viability analysis), A549: 23.67
[18]
  The results of antibiotic drug inhibiting cancer cell lines (cell viability analysis), AGS: 36.59
T24
  The results of antibiotic drug inhibiting cancer cell lines (cell viability analysis), T24: 41.2

## CC1(C)[C@@H](O[C@H]2O[C@H](C(=O)O)[C@@H](O)[C@H](O)[C@H]2O[C@@H]2O[C@H](C(=O)O)[C@@H](O)[C@H](O)[C@H]2O)CC[C@]2(C)[C@H]3C(=O)C=C4[C@@H]5C[C@@](C)(C(=O)O)CC[C@]5(C)CC[C@@]4(C)[C@]3(C)CC[C@@H]12 [Ammonium Glycyrrhizinate (AMGZ), Ammonium Glycyrrhizinate]
[1]
  The results of antibiotic drug inhibiting cancer cell lines (cell viability analysis), Hep3B: 102.1
[2]
  The results of antibiotic drug inhibiting cancer cell lines (cell viability analysis), MDA-MB231: 98.74
[3]
  The results of antibiotic drug inhibiting cancer cell lines (cell viability analysis), MCF-7: 69.06
[4]
  The results of antibiotic drug inhibiting cancer cell lines (cell viability analysis), H1650: 76.88
Cancer cell lines
  inhibition effect on different cancer cell lines: significant inhibition effect
[5]
  The results of antibiotic drug inhibiting cancer cell lines (cell viability analysis), SAS: 83.22
[6]
  The results of antibiotic drug inhibiting cancer cell lines (cell viability analysis), C-33A: 108.4
[7]
  The results of antibiotic drug inhibiting cancer cell lines (cell viability analysis), HepG2: 119.7
[8]
  The results of antibiotic drug inhibiting cancer cell lines (cell viability analysis), PC-3: 120.7
U-2OS
  The results of antibiotic drug inhibiting cancer cell lines (cell viability analysis), U2OS: 78.97
[9]
  The results of antibiotic drug inhibiting cancer cell lines (cell viability analysis), A375: 100.5
[10]
  The results of antibiotic drug inhibiting cancer cell lines (cell viability analysis), LoVo: 100.4
BxPC-3
  The results of antibiotic drug inhibiting cancer cell lines (cell viability analysis), BxPC-3: 102.8
[11]
  The results of antibiotic drug inhibiting cancer cell lines (cell viability analysis), MKN-45: 96.41
[12]
  The results of antibiotic drug inhibiting cancer cell lines (cell viability analysis), BCC: 93.09
[13]
  The results of antibiotic drug inhibiting cancer cell lines (cell viability analysis), TSGH-8301: 105.2
NIH: OVCAR-3
  The results of antibiotic drug inhibiting cancer cell lines (cell viability analysis), NIH-OVCAR-3: 101
AsPC-1
  The results of antibiotic drug inhibiting cancer cell lines (cell viability analysis), AsPC-1: 100.6
TOV-21G
  The results of antibiotic drug inhibiting cancer cell lines (cell viability analysis), TOV-21G: 74.39
[14]
  viability: 93.4%
[15]
  The results of antibiotic drug inhibiting cancer cell lines (cell viability analysis), 786-O: 102.9
[16]
  The results of antibiotic drug inhibiting cancer cell lines (cell viability analysis), HeLa: 103.4
[17]
  The results of antibiotic drug inhibiting cancer cell lines (cell viability analysis), A549: 83.55
[18]
  The results of antibiotic drug inhibiting cancer cell lines (cell viability analysis), AGS: 109.2
T24
  The results of antibiotic drug inhibiting cancer cell lines (cell viability analysis), T24: 107.9

## O=c1n(CCCN2CCN(c3cccc(Cl)c3)CC2)nc2ccccn12 [Trazodone hydrochloride (Desyrel), Trazodone hydrochloride]
[1]; Homo sapiens, Hep3B, 72 h, read-out: The results of antibiotic drug inhibiting cancer cell lines (cell viability analysis), Hep3B
  viability at 10 µM: 110%
[2]; Homo sapiens, MDA-MB-231, 72 h, read-out: The results of antibiotic drug inhibiting cancer cell lines (cell viability analysis), MDA-MB231
  viability at 10 µM: 87.8%
[3]; Homo sapiens, MCF7, 72 h, read-out: The results of antibiotic drug inhibiting cancer cell lines (cell viability analysis), MCF-7, MCF-7, repeated experiment
  viability at 10 µM: 97.8%
[4]; Homo sapiens, NCI-H1650, 72 h, read-out: The results of antibiotic drug inhibiting cancer cell lines (cell viability analysis), H1650, H1650, repeated experiment
  viability at 10 µM: 82.4%
Cancer cell lines
  inhibition effect on different cancer cell lines: significant inhibition effect
[5]; Homo sapiens, 72 h, read-out: The results of antibiotic drug inhibiting cancer cell lines (cell viability analysis), SAS
  viability at 10 µM: 58.4%
[6]; Homo sapiens, C-33-A, 72 h, read-out: The results of antibiotic drug inhibiting cancer cell lines (cell viability analysis), C-33A
  viability at 10 µM: 112%
[7]; Homo sapiens, HepG2, 72 h, read-out: The results of antibiotic drug inhibiting cancer cell lines (cell viability analysis), HepG2, HepG2, repeated experiment
  viability at 10 µM: 109%
[8]; Homo sapiens, 72 h, read-out: The results of antibiotic drug inhibiting cancer cell lines (cell viability analysis), PC-3, PC-3, repeated experiment
  viability at 10 µM: 126%
U-2OS; Homo sapiens, U2OS, 72 h, read-out: The results of antibiotic drug inhibiting cancer cell lines (cell viability analysis), U2OS
  viability at 10 µM: 57.6%
[9]; Homo sapiens, A-375, 72 h, read-out: The results of antibiotic drug inhibiting cancer cell lines (cell viability analysis), A375, A375, repeated experiment
  viability at 10 µM: 111%
[10]; Homo sapiens, LoVo, 72 h, read-out: The results of antibiotic drug inhibiting cancer cell lines (cell viability analysis), LoVo, repeated experiment
  viability at 10 µM: 88.8%
BxPC-3; Homo sapiens, BXPC-3, 72 h, read-out: The results of antibiotic drug inhibiting cancer cell lines (cell viability analysis), BxPC-3
  viability at 10 µM: 73.5%
[11]; Homo sapiens, MKN-45, 72 h, read-out: The results of antibiotic drug inhibiting cancer cell lines (cell viability analysis), MKN-45, MKN-45, repeated experiment
  viability at 10 µM: 108%
[12]; Homo sapiens, 72 h, read-out: The results of antibiotic drug inhibiting cancer cell lines (cell viability analysis), BCC
  viability at 10 µM: 114%
[13]; Homo sapiens, 72 h, read-out: The results of antibiotic drug inhibiting cancer cell lines (cell viability analysis), TSGH-8301, TSGH-8301, repeated experiment
  viability at 10 µM: 134%
NIH: OVCAR-3; Homo sapiens, OVCAR-3, 72 h, read-out: The results of antibiotic drug inhibiting cancer cell lines (cell viability analysis), NIH-OVCAR-3
  viability at 10 µM: 103%
AsPC-1; Homo sapiens, ASPC1, 72 h, read-out: The results of antibiotic drug inhibiting cancer cell lines (cell viability analysis), AsPC-1
  viability at 10 µM: 89.4%
TOV-21G; Homo sapiens, TOV21G, 72 h, read-out: The results of antibiotic drug inhibiting cancer cell lines (cell viability analysis), TOV-21G
  viability at 10 µM: 107%
[14]
  viability: 113%
[15]; Homo sapiens, 786-0, 72 h, read-out: The results of antibiotic drug inhibiting cancer cell lines (cell viability analysis), 786-O
  viability at 10 µM: 95.5%
[16]; Homo sapiens, HeLa, 72 h, read-out: The results of antibiotic drug inhibiting cancer cell lines (cell viability analysis), HeLa, repeated experiment
  viability at 10 µM: 105%
[17]; Homo sapiens, A549, 72 h, read-out: The results of antibiotic drug inhibiting cancer cell lines (cell viability analysis), A549, A549, repeated experiment
  viability at 10 µM: 92%
[18]; Homo sapiens, 72 h, read-out: The results of antibiotic drug inhibiting cancer cell lines (cell viability analysis), AGS, repeated experiment
  viability at 10 µM: 120%
T24; Homo sapiens, T-24, 72 h, read-out: The results of antibiotic drug inhibiting cancer cell lines (cell viability analysis), T24
  viability at 10 µM: 106%
